These molecules were tested against GLP1R (Homo sapiens, UniProt P43220) (assay: GLP1R/CRE-Luc luciferase reporter gene assay (agonist activity)). Settings: HKE293-Human GLP1R/CRE-luc cells, 5 h at 37° C., read-out: EC50 (nM) Assay 2.
Assay type: cell-based
Set-up: host or cells: HKE293 (so in the source)
Procedure: GLP1R-mediated agonist activity was determined with a cell-based functional assay utilizing a britelite plus luciferase reporter gene assay system. The stable cell line overexpress GLP1R and target response element. The stimulation with GLP1R agonist results in the upregulation of intracellular cAMP, which regulate the activities of cAMP-response element binding protein (CREB) and CREB-Luc. Reagents and equipment used in the assay are listed below, followed by the protocol.
• 1) Cell Line: HKE293-Human GLP1R/CRE-luc • 2) Complete Medium: DMEM+10% FBS+1×Penicillin-Streptomycin+400 μg/mL G418
• a) Seed HKE293-Human GLP1R/CRE-luc cells at 20,000 cells/well into 384 well assay plate (6007680-50, PE) using complete medium and incubate overnight. • b) Prepare 6×compound working solution with Medium. • c) Add 5 μL 6×compound working solution into cell plate, incubate 5 h at 37° C. • d) Add 20 μl britelite plus Luciferase Assay Reagent into each well of 384-well assay plate. • e) Record the luminescence value on Envision plate reader.
• 3.1% Activity is calculated as follow:
% Activity=(Signalcmpd−SignalAve_VC)/(SignalAve_PC−SignalAve_VC)×100. • 3.2 Calculate EC50 and Plot effect-dose curve of cmpds:
Y=Bottom+(Top−Bottom)/(1+10^((Log EC50−X)*HillSlope)) • X: log of agonist concentration; Y: % Activity.

Sequence of GLP1R (P43220 24-463): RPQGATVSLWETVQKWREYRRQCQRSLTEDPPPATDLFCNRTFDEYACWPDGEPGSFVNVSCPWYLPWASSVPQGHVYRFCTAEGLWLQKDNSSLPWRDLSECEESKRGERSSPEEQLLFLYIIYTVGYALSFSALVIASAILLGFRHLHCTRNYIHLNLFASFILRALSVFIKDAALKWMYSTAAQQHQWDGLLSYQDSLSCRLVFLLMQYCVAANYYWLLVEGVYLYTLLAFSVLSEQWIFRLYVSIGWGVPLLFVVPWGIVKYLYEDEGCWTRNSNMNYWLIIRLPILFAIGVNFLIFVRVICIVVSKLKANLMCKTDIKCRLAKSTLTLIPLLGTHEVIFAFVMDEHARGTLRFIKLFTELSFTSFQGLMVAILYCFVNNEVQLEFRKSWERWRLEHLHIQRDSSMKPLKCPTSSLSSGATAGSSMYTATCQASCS

EC50 [nM] | SMILES
5.55 | COc1cc(C#N)ccc1COc1cccc(C23CCN(Cc4nc5ccc(C(=O)O)cc5n4C[C@@H]4CCO4)CC2C3)n1 (single isomer, unassigned) [Compound 1-6-A]
4.98 | COc1cc(C#N)ccc1COc1cccc(C23CCN(Cc4nc5ccc(C(=O)O)cc5n4C[C@@H]4CCO4)CC2C3)n1 (single isomer, unassigned) [Compound 1-6-B]
102 | COc1cc(C#N)ccc1COc1ccnc(C23CCN(Cc4nc5ccc(C(=O)O)cc5n4C[C@@H]4CCO4)CC2C3)n1 (single isomer, unassigned) [Compound 1-26-A]
7.54 | COc1cc(C#N)ccc1COc1ccnc(C23CCN(Cc4nc5ccc(C(=O)O)cc5n4C[C@@H]4CCO4)CC2C3)n1 (single isomer, unassigned) [Compound 1-26-B]
16 | COc1cc(C#N)ccc1COc1ccnc(C23CCN(Cc4nc5c(OC)cc(C(=O)O)cc5n4C[C@@H]4CCO4)CC2C3)n1 (single isomer, unassigned) [Compound 1-38-A]
0.28 | COc1cc(C#N)ccc1COc1ccnc(C23CCN(Cc4nc5c(OC)cc(C(=O)O)cc5n4C[C@@H]4CCO4)CC2C3)n1 (single isomer, unassigned) [Compound 1-38-B]
26.4 | COc1cc(Cl)ccc1COc1cccc(C23CCN(Cc4nc5ccc(C(=O)O)cc5n4C[C@@H]4CCO4)CC2C3)n1 (stereo partly drawn) [Compound 1-12, 2-((6-(6-((4-chloro-2-methoxybenzyl)oxy)pyridin-2-yl)-3-azabicyclo[4.1.0]heptan-3-yl)methyl)-1-(((S)-oxetan-2-yl)methyl)-1H-benzo[d]imidazole-6-carboxylic acid]
35.8 | COc1nc(C#N)ccc1COc1cccc(C23CCN(Cc4nc5ccc(C(=O)O)cc5n4C[C@@H]4CCO4)CC2C3)n1 (stereo partly drawn) [Compound 1-13, 2-((6-(6-((6-cyano-2-methoxypyridin-3-yl)methoxy)pyridin-2-yl)-3-azabicyclo[4.1.0]heptan-3-yl)methyl)-1-(((S)-oxetan-2-yl)methyl)-1H-benzo[d]imidazole-6-carboxylic acid]
17.4 | COc1cc(C(F)(F)F)ccc1COc1cccc(C23CCN(Cc4nc5ccc(C(=O)O)cc5n4C[C@@H]4CCO4)CC2C3)n1 (stereo partly drawn) [Compound 1-14, 2-((6-(6-((2-methoxy-4-(trifluoromethyl)benzyl)oxy)pyridin-2-yl)-3-azabicyclo[4.1.0]heptan-3-yl)methyl)-1-(((S)-oxetan-2-yl)methyl)-1H-benzo[d]imidazole-6-carboxylic acid]
439 | COCc1ccc(COc2cccc(C34CCN(Cc5nc6ccc(C(=O)O)cc6n5C[C@@H]5CCO5)CC3C4)n2)c(OC)c1 (stereo partly drawn) [Compound 1-15, 2-((6-(6-((2-methoxy-4-(methoxymethyl)benzyl)oxy)pyridin-2-yl)-3-azabicyclo[4.1.0]heptan-3-yl)methyl)-1-(((S)-oxetan-2-yl)methyl)-1H-benzo[d]imidazole-6-carboxylic acid]
24.8 | COc1cc(Br)ccc1COc1cccc(C23CCN(Cc4nc5ccc(C(=O)O)cc5n4C[C@@H]4CCO4)CC2C3)n1 (stereo partly drawn) [Compound 1-16, 2-((6-(6-((4-bromo-2-methoxybenzyl)oxy)pyridin-2-yl)-3-azabicyclo[4.1.0]heptan-3-yl)methyl)-1-(((S)-oxetan-2-yl)methyl)-1H-benzo[d]imidazole-6-carboxylic acid]
6.66 | COc1cc(C#N)ccc1COc1cccc(C23CCN(Cc4nc5c(C#N)cc(C(=O)O)cc5n4C[C@@H]4CCO4)CC2C3)n1 (stereo partly drawn) [Compound 1-17, 4-cyano-2-((6-(6-((4-cyano-2-methoxybenzyl)oxy)pyridin-2-yl)-3-azabicyclo[4.1.0]heptan-3-yl)methyl)-1-(((S)-oxetan-2-yl)methyl)-1H-benzo[d]imidazole-6-carboxylic acid]
